# Assay results as given in ChEMBL document CHEMBL1130043, “Chemometric methodologies in a quantitative structure-activity relationship study: the antibacterial activity of 6-aminoquinolones” (1997).
# Tests used:
# Type in all cases: functional
# [1] = tested on: Escherichia coli; assay: Antibacterial activity against Escherichia coli ATCC 8739(Gram negative) strain.
# [2] = tested on: Escherichia coli; assay: Antibacterial activity against Escherichia coli ISF 432(Gram negative) strain.
# [3] = tested on: Enterobacter cloacae; assay: Antibacterial activity against Enterobacter cloacae OMNFI 174 (Gram negative) strain.
# [4] = tested on: Klebsiella pneumoniae; assay: Antibacterial activity against Klebsiella pneumoniae ATCC 10031 (Gram negative) strain.
# [5] = tested on: Providencia stuartii; assay: Antibacterial activity against Providencia stuartii CNUR 5(Gram negative) strain.
# [6] = tested on: Pseudomonas aeruginosa; assay: Antibacterial activity against Pseudomonas aeruginosa ATCC 9027(Gram negative) strain.
# [7] = tested on: Shigella; assay: Antibacterial activity against Shigella enteritidis (Gram negative) strain.
# [8] = tested on: Staphylococcus epidermidis; assay: Antibacterial activity against Staphylococcus epidermidis HCF Berset C (Gram positive) strain.
# [9] = tested on: Staphylococcus epidermidis; assay: The compound was tested in vitro for antibacterial activity against Staphylococcus epidermidis CPHL A2 (Gram positive) strain
# [10] = tested on: Staphylococcus aureus; assay: Antibacterial activity against Staphylococcus aureus MPR 5 (Gram positive) strain.
# [11] = tested on: Enterococcus faecalis; assay: Antibacterial activity against Streptococcus faecalis LEP Br (Gram positive) strain.
# [12] = tested on: Staphylococcus aureus; assay: Antibacterial activity against Staphylococcus aureus ATCC 6538 (Gram positive) strain.
# [13] = tested on: Acinetobacter calcoaceticus; assay: Antibacterial activity against Acinetobacter calcoaceticus OSMPV 113 (Gram negative) strain.
# [14] = tested on: Staphylococcus epidermidis; assay: Antibacterial activity against Staphylococcus epidermidis CPHL A2 (Gram positive) strain, activity is expressed as log2MIC.
# [15] = tested on: Staphylococcus epidermidis; assay: The compound was tested in vitro for antibacterial activity against Staphylococcus epidermidis CPHL A2 (Gram positive) strain.
# [16] = tested on: Acinetobacter calcoaceticus; assay: The compound was tested for in vitro antibacterial activity against Acinetobacter calcoaceticus OSMPV 113(Gram negative) strain.
# [17] = tested on: Pseudomonas aeruginosa; assay: The compound was tested for in vitro antibacterial activity against Pseudomonas aeruginosa ATCC 9027(Gram negative) strain.
# [18] = tested on: Acinetobacter calcoaceticus; assay: The compound was tested for in vitro antibacterial activity against Acinetobacter calcoaceticus OSMPV 113 (Gram negative) strain.
# [19] = tested on: Escherichia coli; assay: The compound was tested for in vitro antibacterial activity against Escherichia coli ATCC 8739 (Gram negative) strain.
# [20] = tested on: Escherichia coli; assay: The compound was tested for in vitro antibacterial activity against Escherichia coli ISF 432 (Gram negative) strain.
# [21] = tested on: Pseudomonas aeruginosa; assay: The compound was tested for in vitro antibacterial activity against Pseudomonas aeruginosa ATCC 9027 (Gram negative) strain.
# [22] = tested on: Staphylococcus aureus; assay: The compound was tested for in vitro antibacterial activity against Staphylococcus aureus ATCC 6538 (Gram positive) strain.
# [23] = tested on: Staphylococcus aureus; assay: The compound was tested for in vitro antibacterial activity against Staphylococcus aureus MPR 5 (Gram positive) strain.
SMILES,Log2 MIC [1],Log2 MIC [2],Log2 MIC [3],Log2 MIC [4],Log2 MIC [5],Log2 MIC [6],Log2 MIC [7],Log2 MIC [8],Log2 MIC [9],Log2 MIC [10],Log2 MIC [11],Log2 MIC [12],Log2 MIC [13],Log2 MIC [14],other results
CC(=O)NC1CCN(c2c(N)cc3c(=O)c(C(=O)O)cn(C4CC4)c3c2C)C1 (stereo not given),10,10,5,9,2,3,5,3,3,3,1,3,5,,
NCCSc1cc2c(cc1N)c(=O)c(C(=O)O)cn2C1CC1,7,7,0,6,0,0,0,0,,0,0,0,0,0,
CC(=O)NC1CCN(c2cc3c(cc2N)c(=O)c(C(=O)O)cn3C2CC2)C1 (stereo not given),5,5,0,5,0,0,0,0,0,0,0,0,0,,
Cc1c(N2CCOCC2)c(N)cc2c(=O)c(C(=O)O)cn(C3CC3)c12,12,12,10,12,8,7,10,10,9,10,7,10,,,
Nc1cc2c(=O)c(C(=O)O)cn(-c3ccc(F)cc3)c2cc1N1CCSCC1,11,12,5,12,5,0,5,5,,7,0,8,5,5,
CN1CCN(c2cc3c(cc2N)c(=O)c(C(=O)O)cn3-c2ccc(F)cc2)CC1,10,10,5,10,5,4,5,4,,5,1,4,3,4,
Cc1c(N2CCC(O)CC2)c(N)cc2c(=O)c(C(=O)O)cn(C3CC3)c12,7,12,8,12,7,6,9,11,11,10,8,11,10,,
Nc1cc2c(=O)c(C(=O)O)cn(C3CC3)c2cc1Cl,6,6,3,6,1,0,3,1,,0,0,0,0,,Log2 MIC [15]: 0
Cc1c(N2Cc3ccccc3C2)c(N)cc2c(=O)c(C(=O)O)cn(C3CC3)c12,13,13,9,11,11,8,9,12,13,13,9,13,,,
Cc1c(N2CCSCC2)c(N)cc2c(=O)c(C(=O)O)cn(C3CC3)c12,9,12,9,12.5,6,7,10,10,10,11,8,11,10,,
Cc1c(N2CCNC(C)C2)c(N)cc2c(=O)c(C(=O)O)cn(C3CC3)c12 (stereo not given),10,12,10,12,6,7,11,7,7,7,5,7,6,,

# Second part, led by results:
Log2 MIC [1],Log2 MIC [2],Log2 MIC [3],Log2 MIC [4],Log2 MIC [5],Log2 MIC [6],Log2 MIC [7],Log2 MIC [8],Log2 MIC [9],Log2 MIC [10],Log2 MIC [11],Log2 MIC [12],Log2 MIC [13],Log2 MIC [14],SMILES,other results
12,12,10,12,6,6,11,7,7,8,5,8,,,Cc1c(N2CCN(C)CC2)c(N)cc2c(=O)c(C(=O)O)cn(C3CC3)c12,
3,3,0,2,0,0,0,0,,0,0,0,0,0,CN1CCN(c2cc3c(c(N)c2N)c(=O)c(C(=O)O)cn3C2CC2)CC1,
11,11,7,11,5,5,7,5,,6,2,6,5,6,CN1CCN(c2cc3c(cc2N)c(=O)c(C(=O)O)cn3C(C)(C)C)CC1,
2,7,1,8,1,0,1,3,3,5,1,5,3,,Cc1c(N2CCCC2)c(N)cc2c(=O)c(C(=O)O)cn(C3CC3)c12,
7,8,3,7,0,3,3,0,0,0,0,0,0,,Nc1cc2c(=O)c(C(=O)O)cn(C3CC3)c2cc1N1CCC(N)C1 (stereo not given),
9,13,9,13,8,4,8,6,6,6,4,6,8,,CN1CCN(c2nc3c(c(N)c2N)c(=O)c(C(=O)O)cn3C2CC2)CC1,
,,,12,11,11,,,11,,8,,11,11,O=C(O)c1cn(C2CC2)c2cc(N3CCNCC3)c(F)cc2c1=O [CIPROFLOXACIN],Log2 MIC [16]: 11; Log2 MIC [17]: 11
,,8,9,6,,10,7,,,5,,,8,CN1CCN(c2c(F)cc3c(=O)c(C(=O)O)cn4c3c2SCC4)CC1 [RUFLOXACIN],Log2 MIC [18]: 7; Log2 MIC [19]: 9; Log2 MIC [20]: 9; Log2 MIC [21]: 5; Log2 MIC [22]: 8; Log2 MIC [23]: 8
